Assay results reported in US9862730B2, “Imidazothiadiazole derivatives as protease activated receptor 4 (PAR4) inhibitors for treating platelet aggregation” (BRISTOL-MYERS SQUIBB COMPANY, priority 2012, dated 2018).

Biological target: PAR4 (Homo sapiens (Human), UniProt Q96RI0)
Assay: FLIPR assay in PAR4-expressing HEK293 cells (PAR4 antagonist activity, calcium mobilization)
Assay type: cell-based
Conditions: FLIPR assay as described in Example A
Description: The FLIPR assay is an exemplary in vitro assay for measuring the activity of the PAR4 antagonists of the present invention. In this assay, intracellular calcium mobilization is induced in PAR4 expressing cells by a PAR4 agonist and calcium mobilization is monitored. See, e.g., Example A.
HEK293 cells stably expressing PAR4 were generated by a standard method of transfection of human […] cDNA expression vector or by RAGE technology from Athersys Inc. (Cleveland, Ohio) and selected based on PAR4 protein expression of mRNA expression. […] These cells express endogenous PAR1 and can elicit calcium signal upon stimulation with PAR1 agonist peptide.
Counter screens for agonist activity and PAR1 antagonist activity were also performed. Briefly, HEK293 EBNA PAR4 clone 20664.1J cells were plated 24 hrs. prior to experiment in 384 well, Poly-D-Lysine coated, black, clear bottom plates (Greiner Bio-One, Monroe, N.C.). Cells were plated at 20,000 cells/well in 20 μl growth medium and incubated at 37° C. with 5% CO2 overnight. At time of assay, media was replaced with 40 μl 1× Hank's Buffered Saline Solution (HBSS) (with 10 mM HEPES) and 20 μl test compound also diluted in 1×HBSS buffer was added at various concentrations and 0.67% DMSO final concentration on the FDSS for agonist measurement. The cells were then incubated for 30 minutes at room temperature followed by addition of 20 μl of agonist peptide for antagonist measurement on the FDSS.
As indicated above, the FLIPR assay, an in vitro assay, measures the PAR4 antagonist activity of compounds tested as described in Example A.

PAR4, sequence (Q96RI0 18-385): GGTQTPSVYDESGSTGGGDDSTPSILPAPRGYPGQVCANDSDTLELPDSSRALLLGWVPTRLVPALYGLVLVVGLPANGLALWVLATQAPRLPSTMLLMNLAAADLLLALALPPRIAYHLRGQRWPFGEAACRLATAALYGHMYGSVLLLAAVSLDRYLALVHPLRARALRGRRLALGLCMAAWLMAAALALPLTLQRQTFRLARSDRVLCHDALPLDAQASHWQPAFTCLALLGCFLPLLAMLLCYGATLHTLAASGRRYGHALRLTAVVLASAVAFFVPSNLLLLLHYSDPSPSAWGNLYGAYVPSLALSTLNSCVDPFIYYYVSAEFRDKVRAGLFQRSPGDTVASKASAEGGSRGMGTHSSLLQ

Row | SMILES | IC50
1 | CSc1nn2cc(-c3nc4ccc(OCc5ccccn5)cc4o3)nc2s1 [Example 117, 2-(2-(Methylthio)imidazo[2,1-b][1,3,4]thiadiazol-6-yl)-6-(pyridin-2-ylmethoxy)benzo[d]oxazole] | 654 nM
2 | CSc1nn2cc(-c3nc4ccc(OCCF)cc4o3)nc2s1 [Example 118, 6-(2-Fluoroethoxy)-2-(2-(methylthio)imidazo[2,1-b][1,3,4]thiadiazol-6-yl)benzo[d]oxazole] | 191 nM
3 | COc1cc(OCc2ccccc2)c2nc(-c3cn4nc(OC)sc4n3)oc2c1 [Example 121, 4-(Benzyloxy)-6-methoxy-2-(2-methoxyimidazo[2,1-b][1,3,4]thiadiazol-6-yl)benzo[d]oxazole] | 13 nM
4 | Cc1cccc2oc(-c3cn4nc(C(C)(F)F)sc4n3)nc12 [Example 122, 2-(2-(1,1-Difluoroethyl)imidazo[2,1-b][1,3,4]thiadiazol-6-yl)-4-methylbenzo[d]oxazole] | 509 nM
5 | CC(F)(F)c1nn2cc(-c3nc4c([N+](=O)[O-])cccc4o3)nc2s1 [Example 123, 2-(2-(1,1-Difluoroethyl)imidazo[2,1-b][1,3,4]thiadiazol-6-yl)-4-nitrobenzo[d]oxazole] | 1120 nM
6 | CC(F)(F)c1nn2cc(-c3nc4c(N)cccc4o3)nc2s1 [Example 124, 2-(2-(1,1-Difluoroethyl)imidazo[2,1-b][1,3,4]thiadiazol-6-yl)-4-aminobenzo[d]oxazole] | 3480 nM
7 | CSc1nn2cc(-c3nc4cc(Cl)ccc4o3)nc2s1 [Example 125] | 206 nM
8 | COc1nn2cc(-c3nc4cc(C)ccc4o3)nc2s1 [Example 127] | 27.9 nM
9 | CSc1nn2cc(-c3nc4c(C)cccc4o3)nc2s1 [Example 128] | 17.1 nM
10 | COc1nn2cc(-c3nc4cc(Cl)ccc4o3)nc2s1 [Example 130] | 41.3 nM
11 | CSc1nn2cc(-c3nc4cc(C(C)(C)C)ccc4o3)nc2s1 [Example 132] | 87.2 nM
12 | COc1nn2cc(-c3nc4cc(C(C)(C)C)ccc4o3)nc2s1 [Example 134] | 321 nM
13 | CSc1nn2cc(-c3nc4cc(F)c(F)cc4o3)nc2s1 [Example 137] | 23.9 nM
14 | COc1ccc2oc(-c3cn4nc(SC)sc4n3)nc2c1 [Example 141] | 41 nM
15 | COc1ccc2oc(-c3cn4nc(OC)sc4n3)nc2c1 [Example 142] | 27.8 nM
16 | CSc1nn2cc(-c3nc4cccc(F)c4o3)nc2s1 [Example 143] | 48.8 nM
17 | COc1nn2cc(-c3nc4cccc(F)c4o3)nc2s1 [Example 144] | 91.3 nM
18 | CSc1nn2cc(-c3nc4ccc(OCc5cccnc5)cc4o3)nc2s1 [Example 145] | 286 nM
19 | CSc1nn2cc(-c3nc4c(O)cccc4o3)nc2s1 [Example 147] | 78.3 nM
20 | CSc1nn2cc(-c3nc4c(OCc5ccccc5)cccc4o3)nc2s1 [Example 148] | 224 nM
21 | COc1cccc2oc(-c3cn4nc(SC)sc4n3)nc12 [Example 149] | 13.6 nM
22 | CSc1nn2cc(-c3nc4ccc(OCc5ccc(C(F)(F)F)cc5)cc4o3)nc2s1 [Example 153] | 345 nM
23 | CSc1nn2cc(-c3nc4c(OCc5cccnc5)cccc4o3)nc2s1 [Example 154] | 571 nM
24 | CSc1nn2cc(-c3nc4c(OCc5ccc(C(F)(F)F)cc5)cccc4o3)nc2s1 [Example 155] | 301 nM

Row | SMILES | IC50
25 | CCOc1cccc2oc(-c3cn4nc(SC)sc4n3)nc12 [Example 158] | 69.3 nM
26 | COCOc1ccc2nc(-c3cn4nc(SC)sc4n3)oc2c1 [Example 162] | 171 nM
27 | COCOc1cccc2oc(-c3cn4nc(SC)sc4n3)nc12 [Example 163] | 39.5 nM
28 | COc1nn2cc(-c3nc4ccc(OCc5ccc(C(F)(F)F)cc5)cc4o3)nc2s1 [Example 165] | 81 nM
29 | CSc1nn2cc(-c3nc4c(OCc5ccccn5)cccc4o3)nc2s1 [Example 166] | 139 nM
30 | CSc1nn2cc(-c3nc4c(OCCN5CCOCC5)cccc4o3)nc2s1 [Example 168] | 1150 nM
31 | CSc1nn2cc(-c3nc4ccc(OCc5ccc(Cl)cc5)cc4o3)nc2s1 [Example 169] | 70.5 nM
32 | COc1ccc(COc2ccc3nc(-c4cn5nc(SC)sc5n4)oc3c2)cc1 [Example 170] | 116 nM
33 | CSc1nn2cc(-c3nc4c(OCc5cc(F)cc(F)c5)cccc4o3)nc2s1 [Example 171] | 48.1 nM
34 | COc1ccc(COc2cccc3oc(-c4cn5nc(SC)sc5n4)nc23)cc1 [Example 172] | 814 nM
35 | CSc1nn2cc(-c3nc4c(OCC5CC5)cccc4o3)nc2s1 [Example 175] | 41.3 nM
36 | CSc1nn2cc(-c3nc4ccc(N)cc4o3)nc2s1 [Example 176] | 701 nM
37 | COc1cc(OC)c2nc(-c3cn4nc(SC)sc4n3)oc2c1 [Example 177] | 3.78 nM
38 | Cc1cc2nc(-c3cn4nc(C(C)(F)F)sc4n3)oc2cc1C [Example 179] | 225 nM
39 | CSc1nn2cc(-c3nc4ccc(OC(F)(F)F)cc4s3)nc2s1 [Example 180, 2-(2-(Methylthio)imidazo[2,1-b][1,3,4]thiadiazol-6-yl)-6-(trifluoromethoxy)benzo[d]thiazole] | 189 nM
40 | CSc1nn2cc(-c3nc4c(OC(F)(F)F)cccc4s3)nc2s1 [Example 181, 2-(2-(Methylthio)imidazo[2,1-b][1,3,4]thiadiazol-6-yl)-4-(trifluoromethoxy)benzo[d]thiazole] | 419 nM
41 | Fc1ccc2nc(-c3cn4nc(Br)sc4n3)sc2c1 [Example 183, 2-(2-bromoimidazo[2,1-b][1,3,4]thiadiazol-6-yl)-6-fluorobenzo[d]thiazole] | 412 nM
42 | CC(F)(F)c1nn2cc(-c3nc4ccccc4s3)nc2s1 [Example 185, 2-(2-(1,1-Difluoroethyl)imidazo[2,1-b][1,3,4]thiadiazol-6-yl)benzo[d]thiazole] | 626 nM
43 | CC(F)c1nn2cc(-c3nc4ccccc4s3)nc2s1 (stereo not drawn) [Example 186, 2-(2-(1-Fluoroethyl)imidazo[2,1-b][1,3,4]thiadiazol-6-yl)benzo[d]thiazole] | 252 nM
44 | CSc1nn2cc(-c3nc4c(Cl)cccc4s3)nc2s1 [Example 187] | 771 nM
45 | COc1cc(OC)c2nc(-c3cn4nc(SC)sc4n3)sc2c1 [Example 189] | 2200 nM
46 | CSc1nn2cc(-c3nc4ccc(F)cc4s3)nc2s1 [Example 191] | 30.7 nM
47 | CSc1nn2cc(-c3nc4c(C)cc(Cl)cc4s3)nc2s1 [Example 192] | 990 nM

Continued by falling IC50, values first:

Row | IC50 | SMILES
48 | 2340 nM | CC(F)(F)c1nn2cc(-c3nc4ccccc4o3)nc2s1 [Example 178]
49 | 1650 nM | CSc1nn2cc(-c3nc4c(OCc5ccc(Cl)cc5)cccc4o3)nc2s1 [Example 157]
50 | 1020 nM | CSc1nn2cc(-c3nc4c(OCc5cccc(C#N)c5)cccc4o3)nc2s1 [Example 156]
51 | 920 nM | CSc1nn2cc(-c3nc4ccc(Cl)cc4s3)nc2s1 [Example 188]
52 | 911 nM | CSc1nn2cc(-c3nc4ccc(OCc5ccncc5)cc4o3)nc2s1 [Example 146]
53 | 785 nM | CSc1nn2cc(-c3nc4c(OCc5ccncc5)cccc4o3)nc2s1 [Example 167]
54 | 673 nM | CSc1nn2cc(-c3nc4ccc(OCc5ccccc5Cl)cc4o3)nc2s1 [Example 151]
55 | 621 nM | CSc1nn2cc(-c3nc4ccc(OCc5cccc(C#N)c5)cc4o3)nc2s1 [Example 150]
56 | 470 nM | COc1nn2cc(-c3nc4cc(F)c(F)cc4o3)nc2s1 [Example 138]
57 | 340 nM | CSc1nn2cc(-c3nc4ccc(OCc5cc(F)cc(F)c5)cc4o3)nc2s1 [Example 152]
58 | 204 nM | CSc1nn2cc(-c3nc4ccc(C)cc4s3)nc2s1 [Example 190]
59 | 167 nM | CSc1nn2cc(-c3nc4ccc(OCC5CC5)cc4o3)nc2s1 [Example 174]
60 | 80.4 nM | CSc1nn2cc(-c3nc4cc(OC(F)(F)F)ccc4o3)nc2s1 [Example 139]
61 | 68.9 nM | COc1nn2cc(-c3nc4cc(OC(F)(F)F)ccc4o3)nc2s1 [Example 140]
62 | 48.9 nM | CSc1nn2cc(-c3nc4c(N)cccc4o3)nc2s1 [Example 120, 2-(2-(Methylthio)imidazo[2,1-b][1,3,4]thiadiazol-6-yl)benzo[d]oxazol-4-amine]
63 | 40 nM | CCOc1ccc2nc(-c3cn4nc(SC)sc4n3)oc2c1 [Example 160]
64 | 38.9 nM | COc1nn2cc(-c3nc4cc(C)c(C)cc4o3)nc2s1 [Example 136]
65 | 19.7 nM | CSc1nn2cc(-c3nc4cc(C)c(C)cc4o3)nc2s1 [Example 133]
66 | 19.4 nM | CSc1nn2cc(-c3nc4cc(F)ccc4s3)nc2s1 [Example 182, 5-Fluoro-2-(2-(methylthio)imidazo[2,1-b][1,3,4]thiadiazol-6-yl)benzo[d]thiazole]
67 | 10.6 nM | COc1cc(OCc2ccccc2)c2nc(-c3cn4nc(SC)sc4n3)oc2c1 [Example 119, 4-(Benzyloxy)-6-methoxy-2-(2-(methylthio)imidazo[2,1-b][1,3,4]thiadiazol-6-yl)benzo[d]oxazole]
68 | 10.4 nM | CSc1nn2cc(-c3nc4cc(F)ccc4o3)nc2s1 [Example 126]
69 | 5.5 nM | COc1nn2cc(-c3nc4ccc(F)cc4s3)nc2s1 [Example 184, 6-Fluoro-2-(2-methoxyimidazo[2,1-b][1,3,4]thiadiazol-6-yl)benzo[d]thiazole]
